Laboratory results taken from ChEMBL document CHEMBL4814025, “Exploring naltrexamine derivatives featuring azaindole moiety via nitrogen-walk approach to investigate their in vitro pharmacological profiles at the mu opioid receptor” (Bioorg Med Chem Lett, 2021).

How the values were obtained:
[1] = target: Mu-type opioid receptor (Mus musculus) (UniProt P42866); assay: Partial agonist activity at mouse mu opioid receptor expressed in CHO cell membranes assessed as stimulation of [35S]GTPgammaS binding incubated for 1.5 hrs by scintillation counting method relative to DAMGO; type: functional; conditions: Membrane
[2] = target: Mu-type opioid receptor (Homo sapiens) (UniProt P35372); assay: Partial agonist activity at mu opioid receptor (unknown origin) expressed in CHO cell membranes incubated for 1 hr by [35S]GTPgammaS binding assay relative to DAMGO; type: functional; conditions: Membrane
Mu-type opioid receptor [3] = target: T1, Mu-type opioid receptor (Mus musculus, UniProt P42866); assay: Displacement of [3H]-NLX from mouse mu opioid receptor expressed in CHO cell membranes measured after 1.5 hrs by competitive radioligand binding assay; set-up: species or system Membrane
Mu-type opioid receptor [4] = target: T1, Mu-type opioid receptor; assay: Partial agonist activity at mouse mu opioid receptor expressed in CHO cell membranes incubated for 1.5 hrs by [35S]GTPgammaS binding based scintillation counting method; type: functional, Membrane

Mu-type opioid receptor (Homo sapiens), sequence (P35372 whole entry): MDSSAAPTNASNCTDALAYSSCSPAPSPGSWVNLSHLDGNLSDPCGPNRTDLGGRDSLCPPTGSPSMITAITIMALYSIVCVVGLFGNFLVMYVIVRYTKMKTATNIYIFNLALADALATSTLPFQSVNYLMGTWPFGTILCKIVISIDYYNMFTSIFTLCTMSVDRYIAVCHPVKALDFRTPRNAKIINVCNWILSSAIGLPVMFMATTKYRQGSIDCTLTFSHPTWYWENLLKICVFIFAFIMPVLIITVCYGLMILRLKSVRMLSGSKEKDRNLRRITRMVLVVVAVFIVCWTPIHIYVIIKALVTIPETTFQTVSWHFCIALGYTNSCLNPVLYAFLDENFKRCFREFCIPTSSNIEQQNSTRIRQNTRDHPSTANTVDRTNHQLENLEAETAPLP
T1 sequence (P42866 whole entry): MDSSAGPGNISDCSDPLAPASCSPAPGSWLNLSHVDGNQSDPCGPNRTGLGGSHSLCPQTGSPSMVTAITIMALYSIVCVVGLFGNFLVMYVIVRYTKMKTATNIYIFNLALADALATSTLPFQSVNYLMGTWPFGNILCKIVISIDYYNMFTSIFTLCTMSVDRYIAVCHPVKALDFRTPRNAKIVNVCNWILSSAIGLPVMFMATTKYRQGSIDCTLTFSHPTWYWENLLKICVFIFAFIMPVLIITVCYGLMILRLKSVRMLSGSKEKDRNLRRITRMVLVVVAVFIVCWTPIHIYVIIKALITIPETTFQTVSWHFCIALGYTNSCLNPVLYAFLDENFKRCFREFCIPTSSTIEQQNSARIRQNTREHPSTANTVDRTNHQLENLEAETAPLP
Mu-type opioid receptor (Mus musculus), sequence (P42866 whole entry): as above

| SMILES | Emax [2] [%] | other results |
| --- | --- | --- |
| O=C(N[C@H]1C=C[C@@]2(O)[C@H]3Cc4ccc(O)c5c4[C@@]2(CCN3CC2CC2)[C@H]1O5)c1cccc2cc[nH]c12 | – | Emax [1]: 19.1% |
| O=C(N[C@H]1C=C[C@@]2(O)[C@H]3Cc4ccc(O)c5c4[C@@]2(CCN3CC2CC2)[C@H]1O5)c1c[nH]c2ncccc12 | 22.1 | – |
| O=C(N[C@@H]1C=C[C@@]2(O)[C@H]3Cc4ccc(O)c5c4[C@@]2(CCN3CC2CC2)[C@H]1O5)c1c[nH]c2ncccc12 | – | Emax ([2]; filed as partial agonist): 40.7% |
| O=C(N[C@H]1C=C[C@@]2(O)[C@H]3Cc4ccc(O)c5c4[C@@]2(CCN3CC2CC2)[C@H]1O5)c1c[nH]c2ccccc12 | – | Ki (Mu-type opioid receptor [3]): 0.29 nM; EC50 (Mu-type opioid receptor [4]): 1 nM; Emax [1]: 33.3% |
| O=C(N[C@H]1C=C[C@@]2(O)[C@H]3Cc4ccc(O)c5c4[C@@]2(CCN3CC2CC2)[C@H]1O5)c1c[nH]c2cccnc12 | 18 | – |
| O=C(N[C@@H]1C=C[C@@]2(O)[C@H]3Cc4ccc(O)c5c4[C@@]2(CCN3CC2CC2)[C@H]1O5)c1c[nH]c2cccnc12 | 22.4 | – |
| O=C(N[C@@H]1C=C[C@@]2(O)[C@H]3Cc4ccc(O)c5c4[C@@]2(CCN3CC2CC2)[C@H]1O5)c1c[nH]c2ccncc12 | 14.9 | – |
| O=C(N[C@H]1C=C[C@@]2(O)[C@H]3Cc4ccc(O)c5c4[C@@]2(CCN3CC2CC2)[C@H]1O5)c1n[nH]c2ccccc12 | 12.3 | – |
| O=C(N[C@H]1C=C[C@@]2(O)[C@H]3Cc4ccc(O)c5c4[C@@]2(CCN3CC2CC2)[C@H]1O5)c1c[nH]c2cnccc12 | 21.1 | – |
| O=C(N[C@@H]1C=C[C@@]2(O)[C@H]3Cc4ccc(O)c5c4[C@@]2(CCN3CC2CC2)[C@H]1O5)c1c[nH]c2cnccc12 | 26.2 | – |
| O=C(N[C@@H]1C=C[C@@]2(O)[C@H]3Cc4ccc(O)c5c4[C@@]2(CCN3CC2CC2)[C@H]1O5)c1n[nH]c2ccccc12 | 39.6 | – |
| O=C(N[C@H]1C=C[C@@]2(O)[C@H]3Cc4ccc(O)c5c4[C@@]2(CCN3CC2CC2)[C@H]1O5)c1c[nH]c2ccncc12 | 21.7 | – |
| O=C(N[C@@H]1C=C[C@@]2(O)[C@H]3Cc4ccc(O)c5c4[C@@]2(CCN3CC2CC2)[C@H]1O5)c1c[nH]c2ccccc12 | – | Ki (Mu-type opioid receptor [3]): 0.19 nM; EC50 (Mu-type opioid receptor [4]): 0.22 nM; Emax ([1]; filed as partial agonist): 79.5% |
